Measured values as given in ChEMBL document CHEMBL5725324, “Amide compounds for treatment of complement mediated disorders” (2017).

Molecular target: Complement factor D (Homo sapiens, UniProt P00746)
Assay: Human Factor D Assay: Human factor D (purified from human serum, Complement Technology, Inc.) at 80 nM final concentration is incubated with test compound at various concentrations for 5 minutes at room temperature in 50 mM Tris, 1M NaCl, pH 7.5. A synthetic substrate Z-L-Lys-SBzl and DTNB (Ellman's reagent) are added to final concentrations of 100 μM each. The increase in color is recorded at OD405 nm in a microplate in kinetic mode over 30 minutes with 30 second time points in a […]. IC50 values are calculated by non-linear regression from the percentage of inhibition of complement factor D activity as a function of test compound concentration.

Sequence of Complement factor D (P00746 whole entry): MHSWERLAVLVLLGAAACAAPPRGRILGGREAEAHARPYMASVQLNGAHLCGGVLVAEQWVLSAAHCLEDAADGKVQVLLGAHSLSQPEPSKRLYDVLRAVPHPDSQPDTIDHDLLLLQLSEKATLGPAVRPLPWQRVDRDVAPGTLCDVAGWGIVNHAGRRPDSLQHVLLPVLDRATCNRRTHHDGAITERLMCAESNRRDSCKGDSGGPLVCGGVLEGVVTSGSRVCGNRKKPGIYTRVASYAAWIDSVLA

SMILES: CC(=O)c1cn(CC(=O)N2[C@@H]3C[C@@H]3C[C@H]2C(=O)NCc2cccc(Cl)c2F)c2ccc(NC(=O)N3CCCC3)cc12
- IC50: < 1000 nM
